Experimental findings from US20240398812A1 (Caraway Therapeutics, Inc., priority 2021, published 2024) are described below.

pEC50: −log10 of the molar value.

Common to all, as to type: cell-based
One experiment concerns the target human TRPML1 (Homo sapiens, UniProt Q9GZU1). In words: Fluorescent TRPML1 assay (Fluo4-AM calcium fluorescence, HEK-293 Trex cells). The procedure, abridged:
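Agonist EC50 from non-linear regression of percent activity versus on-plate controls, calcium signal read at 480/540 nm. Compounds spanned 6 nM–20 μM final in triplicate. Cells: doxycycline-induced HEK-293 Trex with cell-surface human TRPML1 mutant, Fluo4-AM loaded, in Ringer's containing 10 mM calcium.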

The target in the next experiment is T1, TRPML2 (Homo sapiens, UniProt Q8IZK6).
T1 construct: expressed in transfected cells
T1 sequence (Q8IZK6 1-566): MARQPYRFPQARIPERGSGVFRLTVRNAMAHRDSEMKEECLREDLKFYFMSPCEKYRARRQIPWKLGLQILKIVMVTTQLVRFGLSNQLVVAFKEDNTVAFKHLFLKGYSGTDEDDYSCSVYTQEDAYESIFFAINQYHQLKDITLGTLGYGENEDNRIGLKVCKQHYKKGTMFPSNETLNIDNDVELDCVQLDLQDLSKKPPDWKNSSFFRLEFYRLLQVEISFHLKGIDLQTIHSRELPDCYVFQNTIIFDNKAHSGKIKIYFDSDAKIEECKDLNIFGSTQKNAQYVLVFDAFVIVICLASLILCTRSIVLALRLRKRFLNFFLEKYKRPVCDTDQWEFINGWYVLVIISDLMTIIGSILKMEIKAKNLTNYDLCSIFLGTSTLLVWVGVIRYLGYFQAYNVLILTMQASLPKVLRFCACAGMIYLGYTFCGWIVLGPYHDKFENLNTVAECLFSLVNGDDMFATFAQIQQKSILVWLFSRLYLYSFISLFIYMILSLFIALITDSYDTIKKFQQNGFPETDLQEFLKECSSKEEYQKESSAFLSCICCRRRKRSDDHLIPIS
In words: Fluorescent TRPML2 assay (as for TRPML1). On the procedure:
HEK-293 Trex cells were stably transfected with a construct consisting of the human coding sequence for TRPML1 cloned into the tet-inducible plasmid pCDNA5 T/O. Mutations were introduced into the TRPML1 sequence to facilitate expression on the cell surface (Silvia Vergarajauregui, Rosa Puertollano Traffic. 2006 March; 7 (3): 337-353). Briefly, the cells are cultured in 150 mm round tissue culture dishes containing 20 mL of media. The day before the assay the cells are rinsed with DPBS —Ca—Mg and then treated briefly with Trypsin-EDTA. The Trypsin-EDTA is diluted with growth media, and cells are counted. 38×10^6 cells are re-plated into 150 mm round tissue culture dishes in media containing 0.5 ug/mL doxycycline to induce expression of hTRPML1.
The day of the experiment cells are lifted from the plates as above and collected by centrifugation. The cells are then suspended in dye loading buffer consisting of Ringer's solution supplemented with 0.1% Pluronic Acid and 1 micromolar Fluo4-AM dye. Cells are loaded for ˜60 minutes in the dark with occasional mixing. The cells are collected by centrifugation, the loading media aspirated, and the cells resuspended in 25 mL Ringer's solution and incubated ˜60 minutes in the dark. The cells are again collected by centrifugation, rinsed in Ringer's Solution and resuspended to 0.2×10^6 cells/mL in modified Ringer's solution containing 10 mM calcium.
Compounds are dissolved to a concentration of 10 millimolar with DMSO. Compound plates are created by dispensing compounds into 384 well black wall clear bottom plates (Greiner 781091). Positive and negative controls are included on each plate. Typically, different amounts of each compound are tested ranging from 100 nanoMoles (20 micromolar final concentration) decreasing in half-log steps to 31 picoMoles (6 nanomolar final concentration). Each concentration is typically tested in triplicate.
50 microliters of dye-loaded cells are dispensed into each well of the compound assay plate created above. The fluorescence in each well is then determined with an excitation wavelength of 480 nm and an emission wavelength of 540 nm using either a Molecular Devices SpectraMax multimode plate reader or a Hamamatsu FDSS/uCell plate imager.
The resulting fluorescence for each well is exported as an ascii file and loaded into our LIMS for analysis. The percent activity of each compound at each concentration is determined by comparison to the positive and negative control wells included in each plate.
Assays for TRPML2 and TRPML3 were performed as above for TRPML1, by substituting the appropriate TRPML2 or TRPML3 subtype for the TRPML1.
EC50 values were calculated using a non-linear regression of Prism. In the table, “A” indicates an EC50 of less than 100 nM, “B” indicates an EC50 range from 100 nM to 500 nM; “C” indicates an EC50 range from 500 nM to 2 μM; and “D” indicates an EC50 greater than 2 μM.

The target of the next experiment is T2, TRPML3 (Homo sapiens, UniProt Q8TDD5).
T2 construct: expressed in transfected cells
T2 sequence (Q8TDD5 1-553): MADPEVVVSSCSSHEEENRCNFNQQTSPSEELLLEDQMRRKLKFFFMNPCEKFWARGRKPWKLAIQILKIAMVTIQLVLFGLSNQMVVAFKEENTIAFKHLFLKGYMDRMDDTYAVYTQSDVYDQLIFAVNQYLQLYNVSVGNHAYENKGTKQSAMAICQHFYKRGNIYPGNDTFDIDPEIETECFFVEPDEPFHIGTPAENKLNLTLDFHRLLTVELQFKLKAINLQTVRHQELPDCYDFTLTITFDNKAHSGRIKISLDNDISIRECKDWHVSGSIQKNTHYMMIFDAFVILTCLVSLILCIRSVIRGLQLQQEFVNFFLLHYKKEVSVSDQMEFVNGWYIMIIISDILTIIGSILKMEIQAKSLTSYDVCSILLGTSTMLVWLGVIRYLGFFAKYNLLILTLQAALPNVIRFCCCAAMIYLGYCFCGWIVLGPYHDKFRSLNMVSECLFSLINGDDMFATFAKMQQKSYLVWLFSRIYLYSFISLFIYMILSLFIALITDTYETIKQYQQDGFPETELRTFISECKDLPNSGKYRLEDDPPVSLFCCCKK
Kind of experiment: Fluorescent TRPML3 assay (as for TRPML1). In outline:
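EC50 came from non-linear regression of percent activity, set against on-plate positive and negative controls, using Fluo4 fluorescence (ex 480, em 540 nm). Compounds ran in triplicate from 6 nM to 20 µM final in half-log steps. Doxycycline-induced (0.5 ug/mL) HEK-293 Trex cells expressing surface-directed mutant channel were in 10 mM calcium Ringer's.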

Chain of human TRPML1 (Q9GZU1 whole entry L15A/L16A/L577A/L578A, form open): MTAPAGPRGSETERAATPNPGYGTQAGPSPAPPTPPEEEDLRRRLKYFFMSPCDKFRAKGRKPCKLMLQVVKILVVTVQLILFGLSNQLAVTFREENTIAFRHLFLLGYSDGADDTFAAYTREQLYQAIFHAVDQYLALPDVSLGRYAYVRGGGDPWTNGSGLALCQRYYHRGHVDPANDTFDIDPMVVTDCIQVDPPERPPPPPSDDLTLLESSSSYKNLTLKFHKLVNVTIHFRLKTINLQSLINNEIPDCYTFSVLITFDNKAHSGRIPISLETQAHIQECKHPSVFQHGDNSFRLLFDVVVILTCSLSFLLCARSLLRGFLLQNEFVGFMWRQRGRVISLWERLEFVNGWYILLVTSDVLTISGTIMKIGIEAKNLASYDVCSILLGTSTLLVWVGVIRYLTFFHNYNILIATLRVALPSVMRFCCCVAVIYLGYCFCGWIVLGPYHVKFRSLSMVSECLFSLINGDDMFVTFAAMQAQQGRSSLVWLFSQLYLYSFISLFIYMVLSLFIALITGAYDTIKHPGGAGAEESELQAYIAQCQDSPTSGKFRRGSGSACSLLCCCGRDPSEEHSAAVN

As to `CC(C)CC(=O)N1C[C@H](C)N(c2ncnc3c2c(C2CC2)cn3-c2cc(C#N)ccn2)C[C@H]1C` [Compound 154], the pEC50 was 6.30 to 7.00 on human TRPML1 (Table 3, compounds 101-177); less than 5.70 at TRPML2 (Table 3, compounds 101-177); more than 7.00 at TRPML3 (Table 3, compounds 101-177).
On the same counts, the results for `CC(C)C(=O)N1CCN(c2ncnc3c2c(-c2ccccc2F)cn3-c2cc(C#N)ccn2)C2(CC2)C1` [Compound 155, 2-(5-(2-fluorophenyl)-4-(7-isobutyryl-4,7-diazaspiro[2.5]octan-4-yl)-7H-pyrrolo[2,3-d]pyrimidin-7-yl)isonicotinonitrile] are more than 7.00, 6.30 to 7.00 and more than 7.00.
For the compound `C[C@@H]1CN(c2ncnc3c2c(-c2ccccc2F)cn3-c2cc(C#N)ccn2)[C@@H](C)CN1C(=O)C(C)(C)O` [Compound 158, 2-(5-(2-fluorophenyl)-4-((2S,5R)-4-(2-hydroxy-2-methylpropanoyl)-2,5-dimethylpiperazin-1-yl)-7H-pyrrolo[2,3-d]pyrimidin-7-yl)isonicotinonitrile], the pEC50 at human TRPML1 (Table 3, compounds 101-177) is more than 7.00; at TRPML2 (Table 3, compounds 101-177) it was 6.30 to 7.00; at TRPML3 (Table 3, compounds 101-177) it was more than 7.00.
Consider `C[C@@H]1CN(c2cn(-c3cc(C#N)ccn3)c3ncnc(N4CCN(C(=O)CC(C)(C)C)C[C@@H]4C)c23)CCO1` [Compound 165, 2-(4-((S)-4-(3,3-dimethylbutanoyl)-2-methylpiperazin-1-yl)-5-((R)-2-methylmorpholino)-7H-pyrrolo[2,3-d]pyrimidin-7-yl)isonicotinonitrile], for which the pEC50 at human TRPML1 (Table 3, compounds 101-177) is more than 7.00; on TRPML2 (Table 3, compounds 101-177), 6.30 to 7.00; on TRPML3 (Table 3, compounds 101-177) it was more than 7.00.
Take `CCCN(CC)c1cn(-c2cc(C#N)ccn2)c2ncnc(N3CCN(C(=O)CC(C)(C)C)C[C@@H]3C)c12` [Compound 166, (S)-2-(4-(4-(3,3-dimethylbutanoyl)-2-methylpiperazin-1-yl)-5-(ethyl(propyl)amino)-7H-pyrrolo [2,3-d]pyrimidin-7-yl)isonicotinonitrile]: the pEC50 on human TRPML1 (Table 3, compounds 101-177) is more than 7.00; at TRPML2 (Table 3, compounds 101-177) it was 6.30 to 7.00; at TRPML3 (Table 3, compounds 101-177), more than 7.00.
Consider `CC(C)(O)C(=O)N1CCN(c2ncnc3c2c(-c2ccccc2F)cn3-c2cc(C#N)ccn2)C(C)(C)C1` [Compound 170, 2-(5-(2-fluorophenyl)-4-(4-(2-hydroxy-2-methylpropanoyl)-2,2-dimethylpiperazin-1-yl)-7H-pyrrolo[2,3-d]pyrimidin-7-yl)isonicotinonitrile], for which the pEC50 at human TRPML1 (Table 3, compounds 101-177) was more than 7.00; on TRPML2 (Table 3, compounds 101-177), 6.30 to 7.00; on TRPML3 (Table 3, compounds 101-177), more than 7.00.
Consider `Cc1nccnc1-c1cn(-c2cc(C#N)ccn2)c2ncnc(N3C[C@@H](C)N(C(=O)CC(C)C)C[C@@H]3C)c12` [Compound 173, 2-(4-((2S,5R)-2,5-dimethyl-4-(3-methylbutanoyl)piperazin-1-yl)-5-(3-methylpyrazin-2-yl)-7H-pyrrolo[2,3-d]pyrimidin-7-yl)isonicotinonitrile], for which the pEC50 on human TRPML1 (Table 3, compounds 101-177) is 6.30 to 7.00; on TRPML2 (Table 3, compounds 101-177), less than 5.70; on TRPML3 (Table 3, compounds 101-177), less than 5.70.
Regarding `CC(C)C(=O)N1C[C@@H](C)N(c2ncnc3c2c(-c2ccccc2F)cn3-c2cc(C#N)ccn2)C[C@@H]1C` [Compound 201, 2-(5-(2-fluorophenyl)-4-((2R,5S)-4-isobutyryl-2,5-dimethylpiperazin-1-yl)-7H-pyrrolo[2,3-d]pyrimidin-7-yl)isonicotinonitrile], the pEC50 was 5.70 to 6.30 at human TRPML1 (Table 3, compounds 201-283); 6.30 to 7.00 at TRPML2 (Table 3, compounds 201-283); 6.30 to 7.00 at TRPML3 (Table 3, compounds 201-283).
On to `C[C@@H]1CN(c2ncnc3c2c(C(F)(F)F)cn3-c2cccc(Cl)c2)[C@@H](C)CN1C(=O)C(C)(C)C` [Compound 204, 1-((2R,5S)-4-(7-(3-chlorophenyl)-5-(trifluoromethyl)-7H-pyrrolo[2,3-d]pyrimidin-4-yl)-2,5-dimethylpiperazin-1-yl)-2,2-dimethylpropan-1-one], for which the pEC50 was more than 7.00 at human TRPML1 (Table 3, compounds 201-283); 6.30 to 7.00 on TRPML2 (Table 3, compounds 201-283); more than 7.00 on TRPML3 (Table 3, compounds 201-283).
As for `C[C@@H]1CN(c2ncnc3c2c(C2CC2)cn3-c2cccc(Cl)c2)[C@@H](C)CN1C(=O)C(C)(C)C` [Compound 206, 1-((2R,5S)-4-(7-(3-chlorophenyl)-5-cyclopropyl-7H-pyrrolo[2,3-d]pyrimidin-4-yl)-2,5-dimethylpiperazin-1-yl)-2,2-dimethylpropan-1-one], the pEC50 on human TRPML1 (Table 3, compounds 201-283) was more than 7.00; on TRPML2 (Table 3, compounds 201-283), 6.30 to 7.00; at TRPML3 (Table 3, compounds 201-283), more than 7.00.
On to `C[C@@H]1CN(c2ncnc3c2c(C(F)(F)F)cn3-c2cc(C#N)ccn2)[C@@H](C)CN1C(=O)C(C)(C)C` [Compound 207, 2-(4-((2S,5R)-2,5-dimethyl-4-pivaloylpiperazin-1-yl)-5-(trifluoromethyl)-7H-pyrrolo[2,3-d]pyrimidin-7-yl)isonicotinonitrile], for which the pEC50 on human TRPML1 (Table 3, compounds 201-283) is more than 7.00; at TRPML2 (Table 3, compounds 201-283), 6.30 to 7.00; on TRPML3 (Table 3, compounds 201-283), more than 7.00.
Consider `COC(C)(C)C(=O)N1C[C@H](C)N(c2ncnc3c2c(C(F)(F)F)cn3-c2cc(C#N)ccn2)C[C@H]1C` [Compound 208, 2-(4-((2S,5R)-4-(2-methoxy-2-methylpropanoyl)-2,5-dimethylpiperazin-1-yl)-5-(trifluoromethyl)-7H-pyrrolo[2,3-d]pyrimidin-7-yl)isonicotinonitrile], for which the pEC50 on human TRPML1 (Table 3, compounds 201-283) is more than 7.00; on TRPML2 (Table 3, compounds 201-283) it was 5.70 to 6.30; at TRPML3 (Table 3, compounds 201-283) it was more than 7.00.
Take `C[C@@H]1CN(c2ncnc3c2c(C(F)(F)F)cn3-c2cc(C#N)ccn2)[C@@H](C)CN1C(=O)CC(C)(C)C` [Compound 209, 2-(4-((2S,5R)-4-(3,3-dimethylbutanoyl)-2,5-dimethylpiperazin-1-yl)-5-(trifluoromethyl)-7H-pyrrolo[2,3-d]pyrimidin-7-yl)isonicotinonitrile]: the pEC50 on human TRPML1 (Table 3, compounds 201-283) is more than 7.00; at TRPML2 (Table 3, compounds 201-283), more than 7.00; on TRPML3 (Table 3, compounds 201-283), more than 7.00.
